According to publication PMC13288968 (ACS chemical neuroscience, 2026):
Values joined by “and” are separate entries in the source; they are usually repeats but may differ in a detail not shown here. Equal values may be shown once.

Columns and labels:
[1] = molecular target: T1, ΔFOSB bound to genomic DNA in hippocampus of APP mice (Mus musculus, UniProt P13346); details: three days into the dorsal hippocampus of APP mice; cited from earlier work
T1 sequence (P13346 1-237 isoform P13346-2): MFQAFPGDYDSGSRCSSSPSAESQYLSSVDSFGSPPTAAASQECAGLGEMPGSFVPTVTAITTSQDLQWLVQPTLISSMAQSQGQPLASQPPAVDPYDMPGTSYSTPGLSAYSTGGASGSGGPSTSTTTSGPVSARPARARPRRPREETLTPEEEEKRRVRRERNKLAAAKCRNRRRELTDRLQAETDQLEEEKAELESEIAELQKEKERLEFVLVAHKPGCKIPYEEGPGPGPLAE

[2] = molecular target: T2, ΔFOSB/JUND bZIP redox switch (ΔFOSB Cys172/JUND Cys285) (Mus musculus, UniProt P13346); test: Redox switch closure of ΔFOSB/JUND bZIP assessed by non-reducing SDS-PAGE; assay type: biochemical
T2 sequence (P13346 153-219 isoform P13346-2): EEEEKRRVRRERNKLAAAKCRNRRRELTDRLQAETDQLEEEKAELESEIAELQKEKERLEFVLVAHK
T2 sequence (P15066 260-326 partner limits assumed): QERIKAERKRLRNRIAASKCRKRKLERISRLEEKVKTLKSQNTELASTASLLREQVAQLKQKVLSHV

[3] = molecular target: T3, ΔFOSB homomer (full-length) (mouse, UniProt P13346-2 2-237); test: fluorescence polarization
T3 sequence: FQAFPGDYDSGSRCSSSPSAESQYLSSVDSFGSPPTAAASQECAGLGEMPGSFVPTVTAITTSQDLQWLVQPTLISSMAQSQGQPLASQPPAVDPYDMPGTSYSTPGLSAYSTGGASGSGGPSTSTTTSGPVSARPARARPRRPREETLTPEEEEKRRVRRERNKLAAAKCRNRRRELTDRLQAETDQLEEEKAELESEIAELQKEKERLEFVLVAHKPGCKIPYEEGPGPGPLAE

[4] = molecular target: T4, ΔFOSB (full-length);JUND (full-length) (mouse;mouse, UniProt P13346-2;P15066 2-237;2-341, |); test: fluorescence polarization
T4 sequence 1: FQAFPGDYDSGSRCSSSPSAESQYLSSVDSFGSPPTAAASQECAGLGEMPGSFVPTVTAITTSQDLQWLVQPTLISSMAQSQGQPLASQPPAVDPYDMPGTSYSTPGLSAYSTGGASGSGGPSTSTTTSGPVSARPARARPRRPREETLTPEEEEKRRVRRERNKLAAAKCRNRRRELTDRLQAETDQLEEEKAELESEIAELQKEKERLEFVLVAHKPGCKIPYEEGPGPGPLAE
T4 sequence 2: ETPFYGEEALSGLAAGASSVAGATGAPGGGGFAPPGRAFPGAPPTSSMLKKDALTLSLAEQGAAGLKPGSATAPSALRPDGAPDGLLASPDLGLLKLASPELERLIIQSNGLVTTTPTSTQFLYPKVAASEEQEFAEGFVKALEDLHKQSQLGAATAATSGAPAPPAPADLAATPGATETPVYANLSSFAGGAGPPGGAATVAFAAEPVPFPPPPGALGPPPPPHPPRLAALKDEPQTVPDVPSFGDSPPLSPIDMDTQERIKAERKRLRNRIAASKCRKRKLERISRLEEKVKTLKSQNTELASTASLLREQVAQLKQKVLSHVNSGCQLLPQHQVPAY

Molecule | reduction in number of ΔFOSB-bound AP-1 sites (CUT&RUN) [1] | effect on closure of the redox switch under oxidation ([2]; 500 μM compound, 100 μM diamide, non-reducing SDS-PAGE) | promotion of oxidation / redox switch closure by compound alone ([2]; 0.5 mM compound, no diamide, SDS-PAGE) | binding result [3] | binding result [4]
NC1=NN(c2ccc(Oc3ccccc3)c(S(=O)(=O)O)c2)C(=O)C1 [JPC0661] | 60% and ~ 60% | None of the three compounds (YL0441, JPC0661, and QB0365) prevented closure of the redox switch | did not oxidize the protein to induce closure of the redox switch | – | –
TMR-cdk5 (cdk5 oligo) (dsDNA) DNA 1: CGTCGGTGACTCAAAACAC DNA 2: GTGTTTTGAGTCACCGACG | – | – | – | binds | binds
